BindingDB's records for doi:10.1038/sj.bjp.0705908 (Abbott Laboratories, 2004)
pKi: −log10 of the molar value.

Biological target: T1, Calcium-activated potassium channel subunit beta (Sus scrofa, UniProt C0KY85)
T1 sequence (C0KY85 whole entry): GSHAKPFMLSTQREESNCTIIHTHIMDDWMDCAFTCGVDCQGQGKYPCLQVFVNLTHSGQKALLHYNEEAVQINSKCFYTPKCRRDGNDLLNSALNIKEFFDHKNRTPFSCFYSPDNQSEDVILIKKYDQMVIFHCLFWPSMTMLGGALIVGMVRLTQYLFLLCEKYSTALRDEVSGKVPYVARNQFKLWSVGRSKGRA

pKi: 7.97
Structure (SMILES): CCC(C)(C)NC(=NC#N)Nc1cccnc1 [NSC_43345]
